Q: Which melting point does the source give for `CC1N=C(S)N(C2CC2)C1=O` (stereo not drawn) here?
A: < 17 °C

Q: With `N#Cc1c(Cl)nc2sccn12` as the molecule, how does the melting point read?
A: 174 to 176 °C

Q: With `Nc1ncnc2c1ncn2CCCCl` as the molecule, how does the melting point read?
A: 339 to 341 °C

Q: Which melting point does the source give for `O=C(CO)Nc1ccc(C(F)(F)F)cc1` here?
A: 104 to 106 °C

Q: Which melting point does the source give for `N#CCc1cc2ccccc2nc1Cl` here?
A: 128 to 130 °C

Q: Which melting point does the source give for `O=c1[nH]cnc2cc(Br)ccc12` here?
A: 262 to 264 °C

Q: For `O=C(O)Cn1ccc([N+](=O)[O-])n1`, which melting point is on record?
A: 172 to 174 °C

Q: For `Nc1ccc(Oc2ccc(F)cc2)c2ccncc12`, which melting point is on record?
A: 149 to 151 °C

Q: For `CC(C)Cc1ccc(C(=O)O)cc1`, which melting point is on record?
A: 144 to 146 °C

Q: With `Nc1ccc2cccc(Cl)c2n1` as the molecule, how does the melting point read?
A: 165 to 167 °C

Q: For `CCc1cc(Cl)nc(-c2ccc([N+](=O)[O-])cc2)n1`, which melting point is on record?
A: 103 to 105 °C

Q: Which melting point does the source give for `CC(NC(N)=O)C12CC3CC(CC(C3)C1)C2` (stereo not drawn) here?
A: 159 to 161 °C

Q: Which melting point does the source give for `CC(=O)Nc1ccc(Br)c(C(=O)O)n1` here?
A: 189 to 191 °C

Q: Which melting point does the source give for `OCc1cn(-c2ccccc2)nc1-c1ccccc1` here?
A: 91 to 93 °C

Q: With `CCOC(=O)c1ccc(S(=O)(=O)N2CCNCC2)cc1` as the molecule, how does the melting point read?
A: 94 to 96 °C

Q: For `O=C(CCl)NC(C1CC1)C1CC1`, which melting point is on record?
A: 114 to 116 °C

Q: For `COc1cc(CCC(=O)O)ccc1Cl`, which melting point is on record?
A: 132 to 134 °C

Q: With `CC(NC(=O)CCl)C(=O)O` (stereo not drawn) as the molecule, how does the melting point read?
A: 125 to 127 °C

Q: Which melting point does the source give for `CCCN1CCCC(C(=O)O)C1` (stereo not drawn) here?
A: 137 to 139 °C

Q: Which melting point does the source give for `O=C(O)CC(O)(c1ccccc1)C(F)(F)F` (stereo not drawn) here?
A: 133 to 135 °C

Q: For `O=C(O)c1oc2ccccc2c1COc1ccccc1Cl`, which melting point is on record?
A: 190 to 192 °C

Q: For `Nc1[nH]ncc1CCCO`, which melting point is on record?
A: 88 to 90 °C

Q: With `CCOC(=O)C1=NN(CC)C(=O)C1` as the molecule, how does the melting point read?
A: 135 to 137 °C

Q: For `Cc1cc(=O)n2c(C)csc2c1C#N`, which melting point is on record?
A: 178 to 180 °C

Q: For `Cc1ccc(S(=O)(=O)OCC2CCOCO2)cc1` (stereo not drawn), which melting point is on record?
A: 63 to 65 °C

Q: For `Nc1ccccc1C(=O)Nc1cccc(C(F)(F)F)c1`, which melting point is on record?
A: 133 to 135 °C

Q: With `Cc1ncc(C(=O)O)c(Cl)c1Br` as the molecule, how does the melting point read?
A: 152 to 154 °C

Q: For `COC(=O)c1c(N)cccc1F`, which melting point is on record?
A: 53 to 55 °C

Q: Which melting point does the source give for `COc1ccc(NC(=O)C=CC(=O)O)cc1OC` here?
A: 119 to 121 °C

Q: For `Cc1ccc(-c2ccsc2C(=O)O)cc1`, which melting point is on record?
A: 134 to 136 °C

Q: With `CSc1cc(C(=O)O)ccn1` as the molecule, how does the melting point read?
A: 218 to 220 °C

Q: Which melting point does the source give for `Cn1ccnc1Sc1ccc(C=O)cc1[N+](=O)[O-]` here?
A: 173 to 175 °C

Q: With `Nc1ccn(-c2ncccc2Cl)n1` as the molecule, how does the melting point read?
A: 89 to 91 °C

Q: For `O=Cc1ccc(-c2ccc(Br)cc2)s1`, which melting point is on record?
A: 110 to 112 °C

Q: With `CC(C)C1CCC2(CC1)NC(=O)NC2=O` (stereo not drawn) as the molecule, how does the melting point read?
A: 298 to 300 °C

Q: Which melting point does the source give for `Cc1ccc(CNCCO)cc1` here?
A: 62 to 64 °C

Q: Which melting point does the source give for `O=C(O)CCN1C(=O)c2ccc(Br)cc2C1=O` here?
A: 209 to 211 °C

Q: Which melting point does the source give for `CN(CCCC(=O)O)C(=O)c1cc(S(N)(=O)=O)cn1C` here?
A: 173 to 175 °C

Q: For `Cc1nc(CNC(=O)OC(C)(C)C)ccc1C(=O)O`, which melting point is on record?
A: 163 to 165 °C

Q: Which melting point does the source give for `N#Cc1cnc(N)cn1` here?
A: 186 to 188 °C

Q: Which melting point does the source give for `NC(=O)C(N)c1cccc(Br)c1` (stereo not drawn) here?
A: 107 to 109 °C

Q: Which melting point does the source give for `NC(=O)c1ccsc1NC(=O)CCC(=O)O` here?
A: 243 to 245 °C

Q: With `Nc1ccccc1N1CCc2ccccc2C1` as the molecule, how does the melting point read?
A: 114 to 116 °C

Q: For `Cc1ccc(C(=O)O)n1C`, which melting point is on record?
A: 149 to 151 °C

Q: Which melting point does the source give for `COC(=O)c1nc(Cl)ccc1S(=O)(=O)Cl` here?
A: 143 to 145 °C

Q: For `NS(=O)(=O)c1ccc([N+](=O)[O-])cc1[N+](=O)[O-]`, which melting point is on record?
A: 149 to 151 °C

Q: With `O=C1CCCS(=O)(=O)C1` as the molecule, how does the melting point read?
A: 141 to 143 °C

Q: With `O=C(O)c1cncnc1-c1ccccc1` as the molecule, how does the melting point read?
A: 141 to 143 °C

Q: With `CC(O)Cc1ccc2ccccc2n1` (stereo not drawn) as the molecule, how does the melting point read?
A: 64 to 66 °C

Q: For `NC(=O)N1CCCCC1C(=O)O` (stereo not drawn), which melting point is on record?
A: 139 to 141 °C

Q: Which melting point does the source give for `O=C(NCCCl)OCC(F)(F)F` here?
A: 31 to 33 °C

Q: With `Nc1cccc(-c2cn3cccnc3n2)c1` as the molecule, how does the melting point read?
A: 125 to 130 °C

Q: For `O=C(O)CCCCNC(=O)c1ccc2[nH]nnc2c1`, which melting point is on record?
A: 189 to 191 °C

Q: For `O=[N+]([O-])C=Cc1ccc(F)cc1F`, which melting point is on record?
A: 55 to 57 °C

Q: For `CC(O)(c1ccc(O)cc1)C(F)(F)F` (stereo not drawn), which melting point is on record?
A: 118 to 120 °C

Q: Which melting point does the source give for `Cc1cccc(OC(C)C(=O)O)c1C` (stereo not drawn) here?
A: 123 to 125 °C

Q: Which melting point does the source give for `O=C(O)Cc1coc(-c2ccc(F)cc2)n1` here?
A: 166 to 168 °C

Q: For `Cc1nc2ccccc2n1CC(=O)NN`, which melting point is on record?
A: 233 to 235 °C

Q: With `Cc1ccc(C(=O)NC=C(Cl)Cl)cc1` as the molecule, how does the melting point read?
A: 96 to 98 °C

Q: For `N#Cc1cccc(NC(=O)CCl)c1`, which melting point is on record?
A: 143 to 145 °C

Q: With `Cc1ccc(-c2nnc(Cl)c3ccccc23)cc1` as the molecule, how does the melting point read?
A: 145 to 147 °C

Q: For `ON=Cc1c(Cl)nc2ccccn12`, which melting point is on record?
A: 209 to 211 °C

Q: For `CN(CC(=O)O)c1nc2ccccc2s1`, which melting point is on record?
A: 165 to 167 °C

Q: Which melting point does the source give for `Cc1ccc2cccnc2c1S(N)(=O)=O` here?
A: 170 to 172 °C

Q: With `CC(C)N1C(=O)CNCC1(C)C` as the molecule, how does the melting point read?
A: 85 to 87 °C

Q: For `CC(Cl)C(=O)N1c2ccccc2Sc2ccccc21` (stereo not drawn), which melting point is on record?
A: 118 to 120 °C

Q: For `CC(C)(C)c1ccc(C2(C(=O)O)CCCCC2)cc1`, which melting point is on record?
A: 160 to 162 °C

Q: Which melting point does the source give for `COc1ccc(S(=O)(=O)N2CCCCCC2)cc1C(=O)O` here?
A: 114 to 116 °C

Q: With `Cc1n[nH]c(C)c1S(=O)(=O)N1CCCCC1` as the molecule, how does the melting point read?
A: 72 to 73 °C

Q: With `O=C(c1ccc(F)cc1)c1ccc(C(F)(F)F)cc1` as the molecule, how does the melting point read?
A: 100 to 102 °C

Q: For `O=C(c1ccc(Br)cc1)C(F)(F)F`, which melting point is on record?
A: 29 to 31 °C

Q: For `CCOC(=O)/C(C#N)=C\Nc1cc(OC)ccc1OC`, which melting point is on record?
A: 131 to 133 °C

Q: With `Nc1cc(F)cc(C(=O)O)c1F` as the molecule, how does the melting point read?
A: 161 to 163 °C
